From patent publication US8771965B2, “Methods and compositions involving nucleotide repeat disorders” (The Board of Regents of the University of Texas System, priority 2006, dated 2014) come the findings set out here.

What all share (assay type): cell-based, human
One test relates to γ-secretase. Kind of test: γ-secretase activity blocked in DM1 myoblasts, NOTCH1 level. The settings on record: pharmacological inhibition of γ-secretase.
The test system of a further test is DM1 myoblasts. Kind of test: Myogenic differentiation of treated DM1 myoblasts in differentiation media (myotubes, myogenin, MyoD). From the text: The above findings supported the possibility that a significant amount of SKELETROPHIN remained bound with the mutant DMPK transcripts within DM1 nuclei, which results in diminished SKELETROPHIN activity in DM1. The attenuated SKELETROPHIN activity then manifests with an increase in JAGGED2 activity, leading to chronic activation of Notch signaling in DM1. Based on these findings we hypothesize that the activated Notch attenuates the ability of DM1 myoblasts to progress toward myogenic lineage, while facilitating their proliferation. To more critically test this idea, DMPK transcripts were targeted in DM1 myoblasts using siRNA and JAGGED2 and NOTCH1 expression was measured, in addition to an assessment of the cells' myogenic properties. DMPK transcripts were targeted to minimize interactions of SKELETROPHIN with CUG RNA, thereby increasing SKELETROPHIN activity. […] JAGGED2 and NOTCH1 levels were measured in the DMPK-siRNA-treated cells. […] In contrast, DM1 myoblasts treated with control siRNA formed fewer and shorter myotubes as well as basal myogenin expression under identical conditions.
Whether attenuating Notch signaling improves the myogenic potential of DM1 myoblasts was assessed. To achieve this goal, JAGGED2 was targeted in DM1 myoblasts with siRNA.
(§1) The above results support the idea that diminished SKELETROPHIN activity results in elevated Notch signaling and activated Notch impairs the efficacy of myoblast differentiation in DM1. To obtain more direct evidence for this interpretation, SKELETROPHIN was overexpressed in DM1 myoblasts and the Notch activity and their myogenic properties were assessed.
The progression of myogenesis was quantified by monitoring the expression of myogenic markers, myogenin and MyoD. […] In contrast, untreated DM1 myoblasts show reduced myogenin and MyoD even after prolonged incubation in differentiation media.

The next test has as its system Notch signaling. Kind of test: SKELETROPHIN overexpression in DM1 myoblasts, Notch activity. The method, then: as §1

Regarding `CC(C)C[C@H](NC(=O)[C@H](Cc1ccccc1)C[C@@H](O)[C@H](Cc1ccccc1)NC(=O)OC(C)(C)C)C(=O)N[C@@H](Cc1ccccc1)C(N)=O` [L-685458], in the test on γ-secretase, the NOTCH1 level entry was “dose-dependent reduction”. Further, in the test on DM1 myoblasts, the MyoD expression result was “increase”, the “formation of multinucleated myotubes” value was “higher propensity to form multi-nucleated myotubes” and the myogenin expression result is on record as “increase”.

B1: SKELETROPHIN: E3 ubiquitin ligase for Jagged2, overexpressed in DM1 myoblasts (protein, listed as Homo sapiens)
chain: MRWKCRVCLDYDLCTQCYMHNKHELAHAFDRYETAHSRPVTLSPRQGLPRIPLRGIFQGAKVVRGPDWEWGSQDGGEGKPGRVVDIRGWDVETGRSVASVTWADGTTNVYRVGHKGKVDLKCVGEAAGGFYYKDHLPRLGKPAELQRRVSADSQPFQHGDKVKCLLDTDVLREMQEGHGGWNPRMAEFIGQTGTVHRITDRGDVRVQFNHETRWTFHPGALTKALGRVGKVVKVFGDGNLRVAVAGQRWTFSPSCLVAYRPEEDANLDVAERARENKSSLSVALDKLRAQKSDPEHPGRLVVEVALGNAARALDLLRRRPEQVDTKNQGRTALQVAAYLGQVELIRLLLQARAGVDLPDDEGNTALHYAALGNQPEATRVLLSAGCRADAINSTQSTALHVAVQRGFLEVVRALCERGCDVNLPDAHSDTPLHSAISAGTGASGIVEVLTEVPNIDVTATNSQGFTLLHHASLKGHALAVRKILARARQLVDAKKEDGFTALHLAALNNHREVAQILIREGRCDVNVRNRKLQSPLHLAVQQAHVGLVPLLVDAGCSVNAEDEEGDTALHVALQRHQLLPLVADGAGGDPGPLQLLSRLQASGLPGSAELTVGAAVACFLALEGADVSYTNHRGRSPLDLAAEGRVLKALQGCAQRFRERQAGGGAAPGPRQTLGTPNTVTNLHVGAAPGPEAAECLVCSELALLVLFSPCQHRTVCEECARRMKKCIRCQVVVSKKLRPDGSEVASAAPAPGPPRQLVEELQSRYRQMEERITCPICIDSHIRLVFQCGHGACAPCGSALSACPICRQPIRDRIQIFV
Regarding B1, in the test with Notch signaling, the NOTCH1 level entry was “significant reduction”. Moreover, in the test on Notch signaling (n=4, P=0.0031), the Notch signaling result is given as “significant reduction”. Moreover, in the test with DM1 myoblasts, the “formation of multinucleated myotubes” value is given as “a large number of these myoblasts differentiated” and the myogenin expression entry was “pronounced myogenin expressions”.
